Experimental data from patent US9550763B2, “Heterocyclic ring and carbocyclic derivative” (Shionogi & Co., Ltd., priority 2012, dated 2017).

Each molecule was assayed against human P2X3 receptor (Homo sapiens (Human), UniProt P56373) (assay: Evaluation of human P2X3 receptor inhibitory activity (Test Example 1-2, FLIPR 384, 384-well, 150 nM ATP)). Details: C6BU-1 cell transfected with human P2X3 receptor gene; method of Test Example 1-2 (compounds I-301 to I-483); read-out: IC50 (human P2X3 receptor inhibitory activity).
Sequence of human P2X3 receptor (P56373 whole entry): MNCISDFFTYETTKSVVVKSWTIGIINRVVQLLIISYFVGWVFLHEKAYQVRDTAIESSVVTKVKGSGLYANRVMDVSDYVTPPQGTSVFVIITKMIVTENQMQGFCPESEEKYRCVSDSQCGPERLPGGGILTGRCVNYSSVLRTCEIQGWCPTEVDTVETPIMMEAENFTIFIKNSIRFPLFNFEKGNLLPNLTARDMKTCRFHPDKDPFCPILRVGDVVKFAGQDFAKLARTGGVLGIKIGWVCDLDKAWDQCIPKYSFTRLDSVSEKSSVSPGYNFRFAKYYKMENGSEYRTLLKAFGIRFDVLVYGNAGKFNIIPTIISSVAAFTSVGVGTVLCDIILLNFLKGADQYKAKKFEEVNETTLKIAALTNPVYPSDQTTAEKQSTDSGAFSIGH
Assay type: cell-based
Procedure: Stably expressing cell line (C6BU-1 cell transfected with human P2X3 receptor gene (GenBank accession number Y07683) was used. The cells were seeded in a 384-well microtiter plate at a concentration of 3000 cells/well and cultured in the medium (7.0% fetal bovine serum, 7.0% horse serum, 1% antibiotic and antifungal in DMEM) for one day at 37° C. under 5% carbon dioxide atmosphere. The medium was replaced with 4 μM Fluo-3-AM solution (20 mM HEPES, […], 5.27 mM KCl, 0.9 mM MgCl2, 1.26 mM CaCl2, 5.6 mM D-glucose, 2.5 mM probenecid, 0.5% BSA, and 0.04% Pluronic F-127, pH 7.5) and incubated at 37° C. under 5% dioxide carbon atmosphere for one hour. The plate was washed with washing buffer (20 mM HEPES, 137 mM NaCl, 5.27 mM KCl, 0.9 mM MgCl2, 1.26 mM CaCl2, 5.6 mM D-glucose, 2.5 mM probenecid, pH7.5), and each well was added with 20 μL of this buffer. The plate was placed in High-Throughput Screening System FLIPR 384 (Molecular Device Co.). Measurement of fluorescence intensity by FLIPR 384 was started, and 20 μL of DMSO solutions containing different concentrations of the test compound as prepared by dilution with dilution buffer (20 mM HEPES, 137 mM NaCl, 5.27 mM KCl, 0.9 mM MgCl2, 1.26 mM CaCl2, 5.6 mM D-glucose, 2.5 mM probenecid, 0.1% Pluronic F-127, pH 7.5) were dispensed to each well through the built-in automatic dispenser. Five minutes after, 150 nM ATP solution (25 μL) prepared by dilution with the dilution buffer was dispensed through the built-in automatic dispenser, and the measurement of fluorescence intensity was continued for 4 min. For each well, the specific maximum fluorescence intensity was calculated as the ratio of the maximum fluorescence intensity after addition of the ATP solution to the fluorescence intensity at the starting of the measurement. The 50% inhibitory concentration (IC50) was calculated under the assumption that the specific maximum fluorescence intensity without test compound is 0% inhibition and that the specific maximum fluorescence intensity when the dilution buffer was added in place of ATP solution is 100% inhibition, to evaluate the inhibitory activity of the test compound. The specific maximum fluorescence intensity and IC50 were calculated using Spotfire (Science & Technology Systems, Inc.)
The data of the compounds I-001 to I-300 are the results by the method mentioned in Test Example 1-1, and the data of the compounds I-301 to I-483 are the results by the method mentioned in Test Example 1-2.

`O=c1cc[nH]/c(=N\c2ccc(Oc3ccon3)cc2)n1Cc1ccc(Cl)cc1` [Compound I-447] and `O=C(O)c1cccc(Oc2ccc(/N=c3\[nH]ccc(=O)n3Cc3ccc(Cl)cc3)cc2)n1` [Compound I-448] cannot be ordered by IC50: under 30000 nM for the first, under 30000 nM for the second.

With `CN(C)c1ccc(Nc2ccc(Oc3ccc(F)cn3)cc2)c(Cc2ccc(Cl)cc2)c1` [Compound I-464, 1-(4-chlorobenzyl)-3-dimethylamino-6-[4-(5-fluoro-2-pyridyloxy)phenylamino]benzene] the IC50 was under 30000 nM.

Same assay, conditions: human P2X3 receptor in C6BU-1 cells; Test Example 1-2 (compounds I-301 to I-483); read-out: P2X3 IC50

Point of comparison: `O=C(Nc1ccon1)c1cn(Cc2ccc(Cl)cc2)c(Nc2ccc(Oc3cccc(F)n3)cc2)nc1=O` [Compound I-372], IC50 51 nM. Against it:
- CCC(=O)Nc1c[nH]/c(=N\c2ccc(Oc3cc(C)cnn3)cc2)n(Cc2ccc(Cl)cc2)c1=O [Compound I-433] — 1.9-fold higher, 99 nM
- O=C(NC1(CO)CCOCC1)c1cn(Cc2ccc(Cl)cc2)c(Nc2ccc(Oc3cccc(F)n3)cc2)nc1=O [Compound I-390] — within 1.5-fold, 59 nM
- Cn1ccc(NC(=O)c2cn(Cc3ccc(Cl)cc3)c(Nc3ccc(Oc4cccc(F)n4)cc3)nc2=O)n1 [Compound I-378] — 2.5-fold lower, 20 nM
- Cc1nc(CNC(=O)c2cn(Cc3ccc(Cl)cc3)c(Nc3ccc(Oc4cccc(F)n4)cc3)nc2=O)no1 [Compound I-392] — 2.5-fold higher, 128 nM
- O=C(NCc1ccco1)c1cn(Cc2ccc(Cl)cc2)c(Nc2ccc(Oc3cccc(F)n3)cc2)nc1=O [Compound I-369] — 2.4-fold higher, 120 nM
- COC(=O)C(C)(C)Cn1c(=O)cc(Nc2ccc(Oc3ccc(F)cn3)c(C)n2)n(C[C@H]2CC[C@H](C)CC2)c1=O [Compound I-444] — 5.7-fold lower, 9 nM
- CC(C)[C@H](NC(=O)c1cn(Cc2ccc(Cl)cc2)c(Nc2ccc(Oc3cccc(F)n3)cc2)nc1=O)C(N)=O [Compound I-380] — 13-fold lower, 4 nM
- CC(C)n1ccc(Nc2ccc(Oc3cccc(C(=O)O)n3)cc2)c(Cc2ccc(Cl)cc2)c1=O [Compound I-466] — 12-fold higher, 597 nM
- Cc1noc(-c2c[nH]/c(=N\c3ccc(Oc4ccc(C(=O)O)nn4)cc3)n(Cc3ccc(Cl)cc3)c2=O)n1 [Compound I-317] — 3.9-fold lower, 13 nM
- CCC(=O)Nc1c[nH]/c(=N\c2ccc(Oc3ccc(C(=O)OC)nn3)cc2)n(Cc2ccc(Cl)cc2)c1=O [Compound I-305] — 10-fold lower, 5 nM
- COCCCNC(=O)c1cn(Cc2ccc(Cl)cc2)c(Nc2ccc(Oc3cccc(F)n3)cc2)nc1=O [Compound I-373] — 2.7-fold higher, 136 nM
- O=c1c(-c2ncno2)c[nH]/c(=N\c2ccc(Oc3ccon3)cc2)n1Cc1ccc(Cl)cc1 [Compound I-449] — 3.5-fold higher, 179 nM
- Cc1nc(Nc2cc(=O)n(C[C@H](C)C(=O)O)c(=O)n2Cc2ccc(Cl)cc2)ccc1Oc1ccc(F)cn1 [Compound I-363] — 6.4-fold lower, 8 nM
- O=C(NCC1COCCO1)c1cn(Cc2ccc(Cl)cc2)c(Nc2ccc(Oc3cccc(F)n3)cc2)nc1=O (centres unmarked) [Compound I-379] — 1.9-fold higher, 96 nM
- C#CCNC(=O)c1c[nH]/c(=N\c2ccc(Oc3cccc(F)n3)cc2)n(Cc2ccc(Cl)cc2)c1=O [Compound I-406] — 6.4-fold lower, 8 nM
- COC(=O)c1cccc(Oc2ccc(/N=c3\[nH]cc(C(F)(F)F)c(=O)n3Cc3ccc(Cl)cc3)cc2)n1 [Compound I-471] — 13-fold higher, 683 nM
- O=C(NCC(=O)N1CCCCC1)c1cn(Cc2ccc(Cl)cc2)c(Nc2ccc(Oc3cccc(F)n3)cc2)nc1=O [Compound I-382] — 5.7-fold lower, 9 nM
- CCc1c[nH]c2cc(Nc3ncc(NC(=O)C4CCOCC4)c(=O)n3Cc3ccc(Cl)cc3)ccc12 [Compound I-416] — 8-fold higher, 406 nM
- CC(C)(C)c1c[nH]/c(=N\c2ccc(Oc3cccc(C(=O)O)n3)cc2)n(Cc2ccc(Cl)cc2)c1=O [Compound I-477] — 10-fold lower, 5 nM
- Cc1noc(-c2c[nH]/c(=N\c3ccc(Oc4ncc(C(=O)O)s4)cc3)n(Cc3ccc(Cl)cc3)c2=O)n1 [Compound I-314] — 5.1-fold lower, 10 nM
- O=C(NC[C@@H]1CCCO1)c1cn(Cc2ccc(Cl)cc2)c(Nc2ccc(Oc3cccc(F)n3)cc2)nc1=O [Compound I-386] — 3.4-fold lower, 15 nM
- Cn1nccc1NC(=O)c1cn(Cc2ccc(Cl)cc2)c(Nc2ccc(Oc3cccc(F)n3)cc2)nc1=O [Compound I-391] — 1.7-fold lower, 30 nM
- COCCn1c(=O)cc(Nc2ccc(Oc3cccc(C(=O)O)n3)c(C)n2)n(Cc2ccc(Cl)cc2)c1=O [Compound I-324] — 3.6-fold lower, 14 nM
- CCOc1cn(Cc2ccc(Cl)cc2)c(Nc2ccc(Oc3cccc(C#N)n3)cc2)nc1=O [Compound I-429] — 8.6-fold higher, 441 nM
- COC(=O)c1cncc(Oc2ccc(/N=c3\[nH]cc(C(C)C)c(=O)n3Cc3ccc(Cl)cc3)cc2)c1 [Compound I-367] — 9.2-fold higher, 471 nM
- O=C(NCc1ccoc1)c1cn(Cc2ccc(Cl)cc2)c(Nc2ccc(Oc3cccc(F)n3)cc2)nc1=O [Compound I-419] — within 1.5-fold, 55 nM
- CCOC(=O)c1cn(Cc2ccc(Cl)cc2)c(Nc2ccc(Oc3ccc(F)cn3)cc2)cc1=O [Compound I-463, 1-(4-chloro-benzyl)-2-[4-(5-fluoro-2-pyridyloxy)phenylamino]-5-(ethoxycarbonyl)pyridin-4(1H)-one] — 2-fold lower, 26 nM
- CC(=O)NCCNC(=O)c1cn(Cc2ccc(Cl)cc2)c(Nc2ccc(Oc3cccc(F)n3)cc2)nc1=O [Compound I-370] — 7.5-fold higher, 384 nM
- O=C(O)c1cccc(Oc2ccc(/N=c3\[nH]cc(N4CCCC4=O)c(=O)n3Cc3ccc(Cl)cc3)cc2)n1 [Compound I-336] — within 1.5-fold, 41 nM
- CC(C)c1c[nH]/c(=N\c2ccc(Oc3cncc(C(=O)O)c3)cc2)n(Cc2ccc(Cl)cc2)c1=O [Compound I-401] — 4.2-fold lower, 12 nM
- O=C(Nc1cnoc1)c1cn(Cc2ccc(Cl)cc2)c(Nc2ccc(Oc3cccc(F)n3)cc2)nc1=O [Compound I-397] — within 1.5-fold, 56 nM
- Cc1noc(-c2c[nH]/c(=N\c3ccc(Oc4cccc(C#N)n4)cc3)n(Cc3ccc(Cl)cc3)c2=O)n1 [Compound I-310] — 3.2-fold lower, 16 nM
- O=C(NCCCO)c1cn(Cc2ccc(Cl)cc2)c(Nc2ccc(Oc3cccc(F)n3)cc2)nc1=O [Compound I-418] — within 1.5-fold, 45 nM
- O=C(Nc1cc[nH]n1)c1cn(Cc2ccc(Cl)cc2)c(Nc2ccc(Oc3cccc(F)n3)cc2)nc1=O [Compound I-421] — 3-fold lower, 17 nM
- COC(=O)c1cc(Oc2ccc(/N=c3\[nH]cc(Nc4ccon4)c(=O)n3Cc3ccc(Cl)cc3)cc2)ccn1 [Compound I-320] — 2.7-fold lower, 19 nM
- C[C@H](NC(=O)c1cn(Cc2ccc(Cl)cc2)c(Nc2ccc(Oc3cccc(F)n3)cc2)nc1=O)C(N)=O [Compound I-381] — 13-fold lower, 4 nM
- COC(=O)[C@H](CO)NC(=O)c1c[nH]/c(=N\c2ccc(Oc3ccon3)cc2)n(Cc2ccc(Cl)cc2)c1=O [Compound I-446] — within 1.5-fold, 47 nM
- CC(=O)OCc1nnc(-c2c[nH]/c(=N\c3ccc(Oc4ccon4)cc3)n(Cc3ccc(Cl)cc3)c2=O)o1 [Compound I-348] — within 1.5-fold, 76 nM
- O=C(NCC1CCCCO1)c1cn(Cc2ccc(Cl)cc2)c(Nc2ccc(Oc3cccc(F)n3)cc2)nc1=O (centres unmarked) [Compound I-388] — 1.8-fold lower, 29 nM
- C#CCNC(=O)c1c[nH]/c(=N\c2ccc(Oc3ccc(F)cn3)cc2)n(Cc2ccc(Cl)cc2)c1=O [Compound I-427] — 10-fold lower, 5 nM
- CNC(=O)CNC(=O)c1cn(Cc2ccc(Cl)cc2)c(Nc2ccc(Oc3cccc(F)n3)cc2)nc1=O [Compound I-430] — 1.6-fold higher, 83 nM
- CC(C)CNC(=O)c1cn(Cc2ccc(Cl)cc2)c(Nc2ccc(Oc3cccc(F)n3)cc2)nc1=O [Compound I-374] — within 1.5-fold, 46 nM
- COC(=O)c1ccc(Oc2ccc(/N=c3\[nH]cc(C(C)C)c(=O)n3Cc3ccc(Cl)cc3)cc2)nc1 [Compound I-366] — 1.8-fold higher, 91 nM
- Cc1nc(Nc2cc(=O)n(CCCC(=O)O)c(=O)n2Cc2ccc(Cl)cc2)ccc1Oc1ccc(F)cn1 [Compound I-361] — 1.6-fold lower, 32 nM
- NC(=O)[C@H](CO)NC(=O)c1cn(Cc2ccc(Cl)cc2)c(Nc2ccc(Oc3cccc(F)n3)cc2)nc1=O [Compound I-375] — 13-fold lower, 4 nM
- CC(C)c1c[nH]/c(=N\c2ccc(Oc3cccc(C(=O)O)n3)cc2)n(Cc2ccc(Cl)cc2)c1=O [Compound I-353] — 8.5-fold lower, 6 nM
- O=C(NCc1ncco1)c1cn(Cc2ccc(Cl)cc2)c(Nc2ccc(Oc3cccc(F)n3)cc2)nc1=O [Compound I-384] — within 1.5-fold, 60 nM
- O=C(NC1CCOCC1)c1cn(Cc2ccc(F)cc2F)c(Nc2ccc(Oc3cccc(F)n3)cc2)nc1=O [Compound I-402] — 5.7-fold lower, 9 nM
- O=C(NC1CCOCC1)c1cn(Cc2ccc(Cl)cc2)c(Nc2ccc3nc(C(F)F)sc3c2)nc1=O [Compound I-359] — within 1.5-fold, 57 nM
